From US9856279B2 (AGIOS PHARMACEUTICALS, INC, priority 2011, dated 2018)

Each molecule was assayed against IDH1 R132H (Homo sapiens, UniProt O75874, R132H) (assay: Assay for IDH1 R132H inhibitors (NADPH/aKG, resazurin detection)). Conditions: Table 3; enzyme assay, 50 minutes at room temperature; read-out: IC50 (IDH1 R132H Inhibition).
Format: biochemical
How it was run: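 Read-out is resorufin fluorescence (Ex544/Em590) 5 min after adding a 30 μM resazurin detection mix. Before that, mutant enzyme (0.2 μg/ml in its mix) ran 50 min at room temperature with compound, 8 uM NADPH and 2 mM aKG (mix levels) in Tris pH 7.5 with NaCl, MgCl2, BSA.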

IDH1 R132H, sequence (O75874 whole entry R132H): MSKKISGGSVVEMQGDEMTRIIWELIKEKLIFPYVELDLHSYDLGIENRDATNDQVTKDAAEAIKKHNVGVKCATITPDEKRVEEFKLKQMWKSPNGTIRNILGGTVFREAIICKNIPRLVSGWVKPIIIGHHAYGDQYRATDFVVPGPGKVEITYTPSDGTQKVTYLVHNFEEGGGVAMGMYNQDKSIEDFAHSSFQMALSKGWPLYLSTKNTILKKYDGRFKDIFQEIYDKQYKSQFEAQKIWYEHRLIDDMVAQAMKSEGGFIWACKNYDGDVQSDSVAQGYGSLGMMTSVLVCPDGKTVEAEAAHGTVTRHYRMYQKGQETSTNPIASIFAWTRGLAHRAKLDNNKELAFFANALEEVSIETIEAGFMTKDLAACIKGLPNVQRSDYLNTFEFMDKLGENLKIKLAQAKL

IC50 | Compound
1000 to 5000 nM | COCCC(=O)N1CCN(c2nc(C3CC3)c(Cc3ccccc3)c(C)c2C#N)C[C@H]1C [Compound 245, (R)-5-benzyl-6-cyclopropyl-2-(4-(3-methoxypropanoyl)-3-methylpiperazin-1-yl)-4-methylnicotinonitrile]
1000 to 5000 nM | COCCC(=O)N1CCN(c2nc(C(C)C)c(-c3ccc(C)cc3)cc2C#N)C[C@H]1C [Compound 198, (R)-6-isopropyl-2-(4-(3-methoxypropanoyl)-3-methylpiperazin-1-yl)-5-p-tolylnicotinonitrile]
1000 to 5000 nM | COCCC(=O)N1CCN(c2nc(C(C)C)c(-c3cccc(OC(F)(F)F)c3)cc2C#N)C[C@H]1C [Compound 230, (R)-6-isopropyl-2-(4-(3-methoxypropanoyl)-3-methylpiperazin-1-yl)-5-(3-(trifluoromethoxy)phenyl)nicotinonitrile]
1000 to 5000 nM | CC(C)c1cc(-c2cccc(F)c2)c(C#N)c(N2CC(C)N(C(=O)Cc3ccccc3)C(C)C2)n1 (centres unmarked) [Compound 135, 2-(3,5-dimethyl-1-(2-phenylacetyl)piperazin-1-yl)-4-(3-fluorophenyl)-6-isopropylnicotinonitrile]
1000 to 5000 nM | CC(C)c1cc(-c2ccccc2)c(C#N)c(N2CCN(C(=O)c3ccoc3)C(C)C2)n1 (centres unmarked) [Compound 110, 2-(4-(furan-3-carbonyl)-3-methylpiperazin-1-yl)-6-isopropyl-4-phenylnicotinonitrile]
5000 to 15000 nM | CC(C)c1cc(-c2ccccc2)nc(N2CCN(C(=O)c3ccoc3)C(C)C2)c1C#N (centres unmarked) [Compound 111]
1000 to 5000 nM | COc1ccccc1-c1cc(C(C)C)nc(N2CCN(C(=O)c3ccccc3)CC2)c1C#N [Compound 105, 2-(4-benzoylpiperazin-1-yl)-6-isopropyl-4-(2-methoxyphenyl)nicotinonitrile]
5000 to 15000 nM | CC(C)c1cc(-c2ccccc2)c(C#N)c(N2CCN(C(=O)Cc3ccccc3)C(C)C2)n1 (centres unmarked) [Compound 121, 6-isopropyl-2-(3-methyl-4-(2-phenylacetyl)piperazin-1-yl)-4-phenylnicotinonitrile]
1000 to 5000 nM | CC(C)c1cc(-c2cccc(F)c2)c(C#N)c(N2CCN(C(=O)c3ccoc3)CC2)n1 [Compound 115, 4-(3-fluorophenyl)-2-(4-(furan-3-carbonyl)piperazin-1-yl)-6-isopropylnicotinonitrile]
1000 to 5000 nM | CC(C)c1cc(-c2ccccc2)c(C#N)c(N2CCN(C(=O)c3c[nH]c4ccccc34)CC2c2ccccc2)n1 (centres unmarked) [Compound 169, 2-(4-(1H-indole-3-carbonyl)-2-phenylpiperazin-1-yl)-6-isopropyl-4-phenylnicotinonitrile]
1000 to 5000 nM | Cc1occc1C(=O)N1CCN(c2nc(C(C)C)c(-c3ccc(F)cc3)cc2C#N)C[C@H]1C [Compound 199, (R)-5-(4-fluorophenyl)-6-isopropyl-2-(3-methyl-4-(2-methylfuran-3-carbonyl)piperazin-1-yl)nicotinonitrile]
1000 to 5000 nM | CC(C)c1nc(N2CCN(C(=O)Cc3cccs3)[C@H](C)C2)c(C#N)cc1-c1ccccc1 [Compound 165, (R)-6-isopropyl-2-(3-methyl-4-(2-(thiophen-2-yl)acetyl)piperazin-1-yl)-5-phenylnicotinonitrile]
5000 to 15000 nM | COc1ccccc1-c1cc(C(C)C)nc(N2CCN(C(=O)c3c[nH]c4ccccc34)CC2)c1C#N [Compound 106]
≤ 1000 nM | COCCC(=O)N1CCN(c2nc(C3CC3)c(-c3ccc(F)cc3F)c(C)c2C#N)C[C@H]1C [Compound 256, 6-cyclopropyl-5-(2,4-difluorophenyl)-2-((R)-4-(3-methoxypropanoyl)-3-methylpiperazin-1-yl)-4-methyl-nicotinonitrile]
5000 to 15000 nM | CC(C)c1cc(-c2ccccc2)c(C#N)c(N2CCN(C(=O)c3ccccc3)CC2)n1 [Compound 100, 2-(4-benzoylpiperazin-1-yl)-6-isopropyl-4-phenylnicotinonitrile]
5000 to 15000 nM | CC(C)c1nc(N2CCN(C(=O)c3ccco3)CC2)c(C#N)cc1-c1ccccc1 [Compound 109, 2-(4-(furan-2-carbonyl)piperazin-1-yl)-6-isopropyl-5-phenylnicotinonitrile]
1000 to 5000 nM | CC(C)c1cc(-c2ccccc2)c(C#N)c(N2CCN(C(=O)c3ccoc3)[C@H](C)C2)n1 [Compound 130, (R)-2-(4-(furan-3-carbonyl)-3-methylpiperazin-1-yl)-6-isopropyl-4-phenylnicotinonitrile]

Same assay, conditions: enzyme assay of Example 12; read-out: IDH1R132H IC50

IC50 | Compound
500 to 1000 nM | COCCC(=O)N1CCN(c2nc(C3CC3)c(-c3cccc(OC)c3F)c(C)c2C#N)C[C@H]1C [Compound 324, (R)-6-cyclopropyl-5-(2-fluoro-3-methoxy-phenyl)-2-[4-(3-methoxy-propionyl)-3-methyl-piperazin-1-yl]-4-methyl-nicotinonitrile]
< 500 nM | COCCC(=O)N1CCN(c2nc(C3CC3)c(N3CCN(CC4CC4)CC3)cc2C#N)C[C@H]1C [Compound 378, (R)-6-cyclopropyl-5-(4-(cyclopropylmethyl)piperazin-1-yl)-2-(4-(3-methoxypropanoyl)-3-methylpiperazin-1-yl)nicotinonitrile]
500 to 1000 nM | COCCC(=O)N1CCN(c2nc(C3CC3)c(OC(C)c3cccc(Cl)c3)cc2C#N)C[C@H]1C (stereo partly drawn) [Compound 310, 5-(1-(3-chlorophenyl)ethoxy)-6-cyclopropyl-2-((R)-4-(3-methoxypropanoyl)-3-methylpiperazin-1-yl)nicotinonitrile]
< 500 nM | COCCC(=O)N1CCN(c2nc(C3CC3)c(-c3cccc4c3CN(C)C4=O)cc2C#N)C[C@H]1C [Compound 460, (R)-6-Cyclopropyl-2-(4-(3-methoxypropanoyl)-3-methylpiperazin-1-yl)-5-(2-methyl-1-oxoisoindolin-4-yl)nicotinonitrile]
< 500 nM | C[C@@H]1CN(c2nc(C3CC3)c(-c3cccc4cnccc34)cc2C#N)CCN1C(=O)[C@@H]1C[C@H]1CO [Compound 505, 6-cyclopropyl-2-((R)-4-((1R,2R)-2-(hydroxymethyl)cyclopropanecarbonyl)-3-methylpiperazin-1-yl)-5-(isoquinolin-5-yl)nicotinonitrile]
< 500 nM | N#Cc1cc(-c2ccnc(N)n2)c(C2CC2)nc1N1CCN(C(=O)CC(F)(F)F)[C@H](C2CC2)C1 [Compound 534]
< 500 nM | COCCC(=O)N1CCN(c2nc(C3CC3)c(-c3ccccc3CCOC)cc2C#N)C[C@H]1C [Compound 338, (R)-6-cyclopropyl-5-[2-(2-methoxy-ethyl)-phenyl]-2-[4-(3-methoxy-propionyl)-3-methyl-piperazin-1-yl]-nicotinonitrile]
500 to 1000 nM | COCCC(=O)N1CCN(c2nc(C3CC3)c(Nc3ccc(F)cc3)cc2C#N)C[C@H]1C [Compound 355, (R)-6-cyclopropyl-5-((4-fluorophenyl)amino)-2-(4-(3-methoxypropanoyl)-3-methylpiperazin-1-yl)nicotinonitrile]
< 500 nM | COCCC(=O)N1CCN(c2nc(C3CC3)c(Nc3ccnc(C(N)=O)c3)cc2C#N)C[C@H]1C [Compound 729, (R)-4-(5-cyano-2-cyclopropyl-6-(4-(3-methoxypropanoyl)-3-methylpiperazin-1-yl)pyridin-3-ylamino)picolinamide]
500 to 1000 nM | COCCC(=O)N1CCN(c2nc(C3CC3)c(-c3ccc(C(=O)N(C)OC)cc3)cc2C#N)C[C@H]1C [Compound 656, (R)-4-(5-cyano-2-cyclopropyl-6-(4-(3-methoxypropanoyl)-3-methylpiperazin-1-yl)pyridin-3-yl)-N-methoxy-N-methylbenzamide]
500 to 1000 nM | COCCC(=O)N1CCN(c2nc(C3CC3)c(-c3cccc(NC(C)=O)c3)cc2C#N)C[C@H]1C [Compound 284, (R)—N-(3-(5-cyano-2-cyclopropyl-6-(4-(3-methoxypropanoyl)-3-methylpiperazin-1-yl)pyridin-3-yl)phenyl)acetamide]
< 500 nM | N#Cc1cc(Oc2cc(Cl)ccn2)c(C2CC2)nc1N1CCN(C(=O)CCO)[C@H](C2CC2)C1 [Compound 734, (R)-5-((4-chloropyridin-2-yl)oxy)-6-cyclopropyl-2-(3-cyclopropyl-4-(3-hydroxypropanoyl)piperazin-1-yl)nicotinonitrile]
500 to 1000 nM | CCCOc1ccc(-c2c(C3CC3)nc(N3CCN(C(=O)CCOC)[C@H](C)C3)c(C#N)c2C)cc1 [Compound 337, (R)-6-cyclopropyl-2-[4-(3-methoxy-propionyl)-3-methyl-piperazin-1-yl]-4-methyl-5-(4-propoxy-phenyl)-nicotinonitrile]
500 to 1000 nM | COCCC(=O)N1CCN(c2nc(C3CC3)c(-c3ccc(N)nc3)cc2C#N)C[C@H]1C [Compound 314, (R)-6′-amino-2-cyclopropyl-6-(4-(3-methoxypropanoyl)-3-methylpiperazin-1-yl)-3,3′-bipyridine-5-carbonitrile]
500 to 1000 nM | C[C@@H]1CN(c2nc(C3CC3)c(-c3ccc(C#N)nc3)cc2C#N)CCN1C(=O)C1CC1 [Compound 583, (R)-6-(4-(cyclopropanecarbonyl)-3-methylpiperazin-1-yl)-2-cyclopropyl-3,3′-bipyridine-5,6′-dicarbonitrile]
< 500 nM | N#Cc1cc(-c2cnc3cnccn23)c(C2CC2)nc1N1CCN(C(=O)C2CC2)[C@H](C2CC2)C1 [Compound 503, (R)-2-(4-(cyclopropanecarbonyl)-3-cyclopropylpiperazin-1-yl)-6-cyclopropyl-5-(imidazo[1,2-a]pyrazin-3-yl)nicotinonitrile]
< 500 nM | COCCC(=O)N1CCN(c2nc(C3CC3)c(-c3ccc(F)cc3)cc2-c2nnco2)C[C@H]1C [Compound 392, (R)-1-(4-(6-cyclopropyl-5-(4-fluorophenyl)-3-(1,3,4-oxadiazol-2-yl)pyridin-2-yl)-2-methylpiperazin-1-yl)-3-methoxypropan-1-one]
500 to 1000 nM | COC(=O)N1CCN(c2nc(C3CC3)c(-c3cccc4cnccc34)cc2C#N)C[C@H]1C1CC1 [Compound 489, (R)-methyl 4-(3-cyano-6-cyclopropyl-5-(isoquinolin-5-yl)pyridin-2-yl)-2-cyclopropylpiperazine-1 carboxylate]
